In patent publication US20100247590A1, “Peptide-Based Systems For Delivery Of Cosmetic Agents” (JOHNSON & JOHNSON, priority 2009, published 2010):
Where two headings read alike, the source gives them in different places. Each block holds one substance with its values, some of them ahead of it. No end group written: not given here.

How the values were obtained:
[1] = Peptide-mediated binding of Co-NTA magnetic beads to gray hair, visual rating on magnet; parameters: species or system human; conditions: Table 11; peptide 0.2 μM
Experimental: Approximately 5 mg of 5 mm long hair strands (90% gray, human) were transferred to 2-mL microcentrifuge tubes. Approximately 1 mL of TBST0.1 buffer (25 mM Tris, 150 mM NaCl, pH7.2, with 0.1% TWEEN®-20) or the same buffer including varying concentrations of HC263 peptide was added to the hair.
The mixtures were shaken on a Nutator for one hour at room temperature (˜22° C.). The hairs were washed three times with TBST0.5 buffer (25 mM Tris, 150 mM NaCl, pH 7.2, with 0.5% TWEEN®-20). After washing, the hairs were resuspended in 900 μL Talon buffer (50 mM sodium phosphate, pH 8.0, 300 mM sodium chloride, 0.01% TWEEN®-20). A subset of hair/peptide conjugates were washed additionally one time with 1 mL of 0.25% SLES (Sodium Lauryl Ether Sulfate) for 5 min at room temperature on the Nutator, then washed two times with 1 mL TBST0.1 buffer. Approximately 0.2 mg of TALON™ beads (DYNABEADS® TALONT™, Invitrogen, Catalog#101.01D) were washed twice with TALON™ buffer on the DYNAL® MPC™ magnet and added to each reaction in 100 μL TALON™ buffer. […]
Beads binding to the hair were expected to co-migrate on the sides of the tubes once applied to the magnet. The strength of binding was visually assessed and rated on a scale of 0 (little or no observed binding) to 5 (highest amount of observed binding). […]

[2] = Visual color assessment of hair treated with peptide then streptavidin-coated iron oxide beads (sequential coloring); conditions: for color intensity value (0-5, 0 no color deposition, 5 deepest color): Table 15, streptavidin-coated iron oxide beads 500 nm; for perceptible color: Tables 17-19
Experimental: A biotinylated peptide and streptavidin-bead system was used to color hair. Sequential deposition was achieved by the following process.
Miniature hair tresses of approximately 1 inch in length containing 100% unpigmented hair were placed in an aqueous solution with 20 mM of peptides (in DI water or Tris Buffered Saline, pH 7.2, 5-150 mM ionic strength), for up to one hour at room temperature, derived in accordance with the methods set forth herein.
Hair samples were pretreated by exposing the hair to different peptides. The peptide created a layer on the hair. Hair samples with a peptide layer were rinsed with SLES solution to remove excess peptide. Next, the peptide-treated hair samples were incubated with streptavidin tagged iron oxide particles (Bangs Laboratories, Inc., Fishers, Ind.; Ademtech, Inc., Pessas, France) to allow the binding between biotin and streptavidin or between the streptavidin-binding domain in HC260 and streptavidin. Particles were purchased in dispersed form and were diluted to 0.025-1 wt % by adding a specified amount of either DI water or Coupling Buffer from Ademtech. Binding was permitted to take place during an incubation period for up to 24 hours at room temperature (˜22° C.) in the dark. Samples were continuously inverted end-over-end during the binding duration incubation period.
A color scale for the associated color intensity of iron oxide treated hair was defined as (0-5), where 0 is no color deposition and 5 is the deepest color.

[3] = biotinylated peptide, streptavidin-HRP ELISA
Excerpt: See, e.g., Example 3 of U.S. Patent Application Publication 2005/022683; hereby incorporated by reference. The MB50 provides an indication of the strength of the binding interaction or affinity of the components of the complex. […] For example, a peptide with a nanomolar (nM) MBso binds more tightly than a peptide with a micromolar (μM) MB50.
The purpose of this Example was to determine the affinity and specificity of the various hair-binding peptides for hair and pigment surfaces, measured as MB50 values, using an ELISA assay. Each of the short, linear peptides were originally identified using phage display. Unless otherwise indicated, the sequences provided in Example 2 include a C-terminal lysine residue that was biotinylated for detection purposes.
The MB50 measurements of biotinylated peptides binding to hair and to red iron oxide particles (Unipure Red from Sensient Technologies, Milwaukee, Wis.) were made using hair bundles. The hair samples were assembled in bundles consisting of 100 hairs about 1 cm long which were bundled together using narrow tape at one end. The hair bundles were incubated in SUPERBLOCK® blocking buffer (Pierce Chemical Co., Rockford, Ill.) for 1 hour at room temperature (˜22° C.), followed by 3 washes with TBST (TBS in 0.05% TWEEN® 20). Peptide binding buffer consisting of various concentrations of biotinylated peptide in TBST and 1 mg/mL BSA was added to the hair bundles and incubated for 1 hour at room temperature, followed by 6 TBST washes. Then, the streptavidin-horseradish peroxidase (HRP) conjugate (Pierce Chemical Co., Rockford, Ill.) was added to each well (1.0 μg per well), and incubated for 1 h at room temperature, followed by 6 times of washes with TBST. All hair bundles were transferred to new tubes and then the color development and the absorbance measurements were performed following standard protocols. The results were plotted as A450 versus the concentration of peptide using GraphPad Prism 4.0 (GraphPad Software, Inc., San Diego, Calif.).

streptavidin = streptavidin (Streptomyces avidinii, UniProt P22629); assay: biochemical
[4] = 200 nm streptavidin-coated iron oxide beads; FIGS. 4A and 4B
Excerpt: Humans can perceive color that is in about the 400 nm to 700 nm range. Ultraviolet light, i.e., 200-400 nm is not visible to humans.

[5] = fluorescence microscopy, FIG. 1
Experimental: A biotinylated peptide and streptavidin-coated bead system was used to illustrate the coupling of beads to hair in accordance with the methods and compositions of this invention.
A human hair sample was placed in an aqueous solution containing 20 mM of HCP5 dimer peptide (SEQ ID NO: 204) derived in accordance with the methods set forth herein. […] The HCP5 dimer was purchased from American Peptide Co., Inc. (Sunnyvale, Calif.) in both biotinylated (SEQ ID NO: 205) and non-biotinylated (SEQ ID NO: 204) versions (a single lysine residue was added to the C-terminus of the biotinylated version to facilitate biotin coupling).
Hair samples were pretreated by exposing the hair samples to either the biotinylated or the non-biotinylated peptide. Ten strands of natural dark brown hair (International Hair Importers), three inches in length, were pre-washed with 2% SLES for 30 seconds, then rinsed extensively with DI water. The hair strands were then immersed in 10 mL of a 5-20 micromolar solution of peptide for up to one hour. Ten hair samples were exposed to the biotinylated peptide and ten hair samples were exposed to non-biotinylated peptide. […]
After the incubation period ended, fluorescence microscopy was used to view the binding of 40 nm fluorescently-labeled streptavidin-coated polystyrene particles to hair.

[6] = Table 17, 200 nm particles, initial, before washing with water
[7] = Table 18, 200 nm particles, after washing with water
[8] = Table 18, 500 nm particles, after washing with water
[9] = Table 19, 200 nm particles, after 0.25% SLES wash

- Strength of binding (5 highest, 0 lowest) [1]: 0
Substance: GSDPG-Gray3-GGG-Gray3-GGGGSGGGGSG-HHHHHH (GSDPGHDHKNQKETHQRHAAGGGHDHKNQKETHQRHAAGGGGSGGGGSGHHHHHH) [HC214]

Substance: HCP5-GGSGPGSGG-HCP5 [(HCP5)2]
- color intensity value (0-5, 0 no color deposition, 5 deepest color) [2]: 0
- color scale score (0-5) ([2]; Table 16, streptavidin-coated iron oxide beads, sequential coloring method): 0
- color measurement (0-5 color scale) [2, 6]: 0
- color measurement (0-5 color scale) ([2]; Table 17, 500 nm particles, initial, before washing with water): 0
- color measurement (0-5 color scale) [2, 7]: 0
- color measurement (0-5 color scale) [2, 8]: 0
- color measurement (0-5 color scale) [2, 9]: 0
- color measurement (0-5 color scale) ([2]; Table 19, 500 nm particles, after 0.25% SLES wash): 0

Substance: THSTHNHGSPRHTNADAGNPK-Biotin [HCP1]
- MB50 ([3]; substrate 90% gray hair): 0.044 µM
- MB50 ([3]; substrate Unipure Red particle): 9.8 µM

Substance: TPPELAHTPHHLAQTRLTDRK-Biotin [Hair4]
- MB50 ([3]; substrate 90% gray hair): 0.15 µM
- MB50 ([3]; substrate Unipure Red particle): 5 µM

- Strength of binding (5 highest, 0 lowest) [1]: 0
Substance: GSDPG-IB5A-GGGGSGGGGSG-HHHHHH (GSDPGTPPELLHGAPRSGGGGSGGGGSGHHHHHH) [HC205]

Substance: MLSENWLTNHPQN [SB33N]
- Kd (streptavidin): ~100 µM

Substance: HINKTNPHQGNHHSEKTQRQK-Biotin [MEA4]
- MB50 ([3]; substrate 90% gray hair): 0.061 µM
- MB50 ([3]; substrate Unipure Red particle): 8.7 µM

Substance: AQSQLPDKHSGLHERAPQRYK-Biotin [Hair2]
- MB50 ([3]; substrate 90% gray hair): 0.25 µM
- MB50 ([3]; substrate Unipure Red particle): 6.8 µM

Substance: HCP5-GGSGPGSGG-HCP5-K [(HCP5)2-biotin]
- deposition of beads on hair [4]: 200 nm beads were deposited on the hair
- binding of 40 nm fluorescently-labeled streptavidin-coated polystyrene particles to hair [5]: bound the particles to hair
- perceptible color ([2]; 200 nm beads): did not exhibited perceptible color
- perceptible color ([2]; 500 nm beads): exhibited perceptible color
- color intensity value (0-5, 0 no color deposition, 5 deepest color) [2]: 4
- color measurement (0-5 color scale) [2, 6]: 0
- color measurement (0-5 color scale) [2, 7]: 0
- color measurement (0-5 color scale) [2, 8]: 3
- color measurement (0-5 color scale) [2, 9]: 0
